Assay results published in patent US9447026B2, “Bicyclic analgesic compounds” (KALYRA PHARMACEUTICALS, INC., priority 2013, dated 2016).

Assays:
male ICR mice = assay: Formalin Paw Test; format: in vivo
Protocol: One test compound or the vehicle was administered to each mouse in each test group (8 mice per group). Non-fasted male ICR mice weighing 23±3 g were used. Compounds of Formula (I) were administered at a concentration of 3 mg/kg, 10 mg/kg, 15 mg/kg, 30 mg/kg, 60 mg/kg, 100 mg/kg, 200 mg/kg or 300 mg/kg; morphine was administered at a concentration of 5 mg/kg; and acetaminophen was administered at a concentration of 200 mg/kg. The control group received the vehicle (5% DMSO/40% PEG400/20% HPbCD/Saline). After 30 or 60 minutes, a 2% formalin solution (0.02 mL) was injected into one hind paw (sub-plantar) of each mouse. Responses were measured every 5 minutes after the formalin injection for 35 minutes.

[1] = test system: pooled human liver microsomes; assay: Glutathione Conjugation Assay; format: in vitro ADME; conditions: 100 μM test compound, 1 mM glutathione, NADPH, 60 mins at 37° C.
Protocol: An incubation mixture consisting of 5 μL of 10 mM test compound in DMSO (5 μL of DMSO for negative control; 5 μL of 10 mM acetaminophen in DMSO for positive control), 5 μL of 0.1 M glutathione 25 mM EDTA in water, 50 μL of 100 mM MgCl2 in water, 50 μL of 20 mg/mL pooled human liver microsomes (P-450 content: ˜0.5 nmol/mg protein), and 340 μL of 100 mM potassium phosphate buffer (pH 7.4) was preincubated at 37° C. for 10 mins. The reaction was initiated by the addition of 50 μL of 100 mM NADPH solution. The final incubation volume was 0.5 mL. The incubation mixture contains 100 μM test compound or acetaminophen (positive control), 1 mM glutathione, and 1 μM P450. After 60 mins incubation at 37° C., 1 mL of chilled acetonitrile was added to stop the reaction. After the addition of acetonitrile, the sample was vortexed and centrifuged. The supernatant was collected, concentrated in TurboVap under N2 (10 psi) at 30° C. for 35 mins, and transferred to a 96-well plate. The plate was capped and centrifuged. The supernatant was injected for LC-MS/MS analysis.
As a result, one skilled in the art would not expect compounds of Formula (I) to form the reactive metabolite NAPQI. A 129 neutral loss scan can be used to search or detect the formation of glutathione conjugates.

[2] = 200 mg/kg, administered 30 minutes before formalin injection, acetaminophen 200 mg/kg, FIG. 5

formation of reactive metabolite NAPQI [1]	SMILES	amount less than the amount of acetaminophen needed to achieve the approximate same pain response (male ICR mice; 60 mg/kg vs 200 mg/kg acetaminophen)	efficacy compared to acetaminophen, after 25 minutes (male ICR mice; [2])	pain response compared to acetaminophen, initial 25 minutes (male ICR mice; [2])	dosage providing a pain response approximately equal to 200 mg/kg of acetaminophen (male ICR mice; dosages ranging from 3 mg/kg to 100 mg/kg, FIG. 9) [mg/kg]	pain response compared to acetaminophen, entire testing period (male ICR mice; given 60 minutes prior to formalin injection, FIG. 10)	glutathione conjugate peak (129 neutral loss scan, LC-MS/MS) [1]	compound dose as percent of acetaminophen dose giving a lower pain response (male ICR mice; 60 mg/kg vs 200 mg/kg acetaminophen, tonic phase)	duration of decrease in pain response (phases) (male ICR mice; 200 mg/kg, administered 30 minutes before formalin injection, FIG. 4)	pain response compared to acetaminophen and morphine (male ICR mice; 200 mg/kg, administered 30 minutes before formalin injection, morphine 5 mg/kg, acetaminophen 200 mg/kg, FIG. 4)	efficacy compared to acetaminophen, acute phase (male ICR mice; all dosages ranging from 15 mg/kg to 200 mg/kg, FIG. 8)	pain response compared to acetaminophen (male ICR mice; dosage 200 mg/kg, FIG. 8)	dose needed to reduce the pain response to a level less than 200 mg/kg of acetaminophen (male ICR mice; tonic phase, FIG. 8) [mg/kg]
NAPQI was not formed	CC(=O)NC12CC(C1)C2 [compound 4, N-(bicyclo[1.1.1]pentan-1-yl)acetamide]	about 33%	increased efficacy compared to acetaminophen	reduces the pain response in a manner similar to acetaminophen for the initial 25 minutes	60	reduces the pain response in a manner similar to acetaminophen throughout the entire testing period	no glutathione conjugate peak was observed						
NAPQI was not formed	CC(=O)NC12CC(NC(C)=O)(C1)C2 [compound 10, N,N′-(bicyclo[1.1.1]pentane-1,3-diyl)diacetamide]						no glutathione conjugate peak was observed	about 33%	lasted through both the early/acute phase (0-5 minutes) and the late/tonic phase (20-35 minutes)	significantly decreased the pain response compared to both acetaminophen and morphine	equal to or significant increased efficacy compared to acetaminophen	approximately 50%	60
